According to US10590463B2, “Diagnostic methods and kits for monitoring response to chemotherapy in ovarian cancer” (RNA Disgnostics Inc., priority 2011, dated 2020):

Test system: A2780 cells
Assay: chemotherapy-dependent RNA degradation (RNA integrity number, Agilent 2100 Bioanalyzer) in cultured A2780 cells
Type: cell-based
Conditions: for concentration at which reductions in RNA integrity are induced: range tested 2.5-40 μM; for change in RNA integrity at low concentrations: low (micromolar) concentrations; for effect on RNA integrity (in words): up to 40 μM
Description: Before starting RNA isolation, an appropriate volume of buffer RLT is prepared by adding β-mercaptoethanol to buffer RLT in a ratio of 10 μl for every 1 ml of solution. RLT buffer is stable for a month after addition of β-ME. […] This precipitate was redissolved by warming at 30° C. and then placing the solution at room temperature. Aliquots of 0.5 ml RLT buffer (with β-ME) were placed in Eppendorf microfuge tubes prior to RNA isolation procedures. […] The resulting lysate is passed at least 5 times through a 20-gauge needle (0.9 mm diameter) fitted to an RNase-free syringe to shear associated genomic DNA. The sheared lysate is then transferred to a microcentrifuge tube and centrifuged at maximum speed for 3 minutes, with transfer of the supernatant to a new tube. One volume of 70% ethanol (500 μl) is added to the homogenized lysate, and the sample mixed well by pipetting. If some volume of the lysate is lost during homogenization, the volume of ethanol is adjusted accordingly. […] Up to 700 μl of the sample is then applied to an RNeasy mini column placed in a 2 ml collection tube, including any precipitate that may have formed. […] Any remaining lysate is applied to the column and the column centrifuged as described above, discarding the flow-through. Buffer RW1 (700 μl) is then added to the RNeasy column in a 2 ml microfuge tube to wash the column free of unbound lysate components. […] The RNeasy column is placed into a new 2 ml microfuge tube and 500 μl of RPE buffer is added to wash the column. After centrifugation for 30 seconds at ≥8000×g (≥10,000 rpm) to remove the wash buffer, two identical washes of the column in RPE buffer are performed. This buffer is supplied as a concentrate, and must be diluted with 4 volumes of ethanol (100%) prior to use. Any residual liquid associated with the column is then removed by centrifugation at full speed for 1 minute. […] After leaving the column at room temperature for 1 minute, the column is centrifuged for 1 min at full speed to collect the eluted RNA. To obtain a higher concentration and complete elution of the RNA from column, a second elution step was performed by reapplying the eluate to the column and centrifuging a second time.
This document includes a detailed description on setting up the assay equipment, preparing and running the RNA Nanochips, and analysis of the capillary electrophoretic data using the Agilent […] Bioanalyzer and its associated “Expert software”. It is important that all “Essential Measurement Practices” described in the document are followed. RNA 6000 “Nanochips” and associated solutions are obtained in RNA 6000 Nano kits that can be purchased from Agilent Technologies (Mississauga, ON). RNA Nanochips are manufactured by Caliper Life Sciences (Hopkinton, Mass.). The sizes of the rRNAs, and the concentration of RNA in a given sample are determined by extrapolation from a standard curve of reference RNAs provided in the RNA 6000 NANO kits. All data from the Bioanalyzer runs were stored both as PDF and XAD files. The Agilent 2100 Expert software was used to obtain all data from the capillary electrophoresis runs, including the RNA quality and quantity for a given RNA preparation.

[1] = 40 μM (each drug), same experiment, FIG. 2
[2] = 40 μM (each drug), same experiment, from 9.40±0.12 units, FIG. 2
[3] = A2780 cells, 40 μM, 24 h, FIG. 1

Structure (SMILES) | concentration at which reductions in RNA integrity are induced (A2780 cells, 24 h) [µM] | reduction in RNA integrity [3] | effect on RNA integrity (in words) (A2780 cells) | further results
O=c1[nH]cc(F)c(=O)[nH]1 [5-FI-uracil, 5-fluorouracil] | ≥ 20 | – | – | –
N.N.[Cl][Pt][Cl] [cisplatin] | – | – | – | effect on RNA integrity at highest concentration (A2780 cells, 40 μM, 24 h): substantial and statistically significant reductions; change in RNA integrity at low concentrations (A2780 cells, 24 h): no effect
CC(=O)O[C@@]12CO[C@@H]1C[C@H](O)[C@@]1(C)C(=O)[C@H](O)C3=C(C)[C@@H](OC(=O)[C@H](O)[C@@H](NC(=O)OC(C)(C)C)c4ccccc4)C[C@@](O)([C@@H](OC(=O)c4ccccc4)[C@H]21)C3(C)C [docetaxel] | – | 18.8% | minimal reduction | RNA integrity after treatment [1]: 8.67±0.42 units; reduction in RNA integrity [2]: 7.8%; change in RNA integrity at low concentrations (A2780 cells, 24 h): little change
COc1cccc2c1C(=O)c1c(O)c3c(c(O)c1C2=O)C[C@@](O)(C(=O)CO)C[C@@H]3O[C@H]1C[C@H](N)[C@H](O)[C@H](C)O1 [doxorubicin] | 2.5 | up to 20.0% | significant reductions | –
COc1cccc2c1C(=O)c1c(O)c3c(c(O)c1C2=O)C[C@@](O)(C(=O)CO)C[C@@H]3O[C@H]1C[C@H](N)[C@@H](O)[C@H](C)O1 [epirubicin] | 2.5 | – | – | RNA integrity after treatment [1]: 5.87±1.74 units; reduction in RNA integrity [2]: 37.7%; dose-dependent reduction in RNA quality (up to) (A2780 cells, 2.5-40 μM, 24 h, FIG. 1): up to 29.2%
COc1cc([C@@H]2c3cc4c(cc3[C@@H](O[C@@H]3O[C@@H]5CO[C@@H](C)O[C@H]5[C@H](O)[C@H]3O)[C@H]3COC(=O)[C@H]23)OCO4)cc(OC)c1O [etoposide] | – | – | unable to affect RNA integrity | effect on RNA integrity at highest concentration (A2780 cells, 40 μM, 24 h): no effect
CC(=O)O[C@H]1C(=O)[C@@]2(C)[C@H]([C@H](OC(=O)c3ccccc3)[C@]3(O)C[C@H](OC(=O)[C@H](O)[C@@H](NC(=O)c4ccccc4)c4ccccc4)C(C)=C1C3(C)C)[C@]1(OC(C)=O)CO[C@@H]1C[C@@H]2O [paclitaxel] | – | 75.8% | greatest reduction | reduction in RNA integrity (A2780 cells, 20 μM, 24 h, FIG. 1): 52.5%
CC[C@]1(O)C[C@@H]2CN(CCc3c([nH]c4ccccc34)[C@@](C(=O)OC)(c3cc4c(cc3OC)N(C)[C@H]3[C@@](O)(C(=O)OC)[C@H](OC(C)=O)[C@]5(CC)C=CCN6CC[C@]43[C@@H]65)C2)C1 [vinblastine] | 2.5 | – | – | reduction of RNA integrity (A2780 cells, lowest concentration tested 2.5 μM): almost two
